# Values quoted from earlier work in patent US10294298B2, “Human PAC1 antibodies” (AMGEN INC., priority 2013, dated 2019).
# What was measured:
# [1] = target: T1, VPAC1 (Homo sapiens, UniProt P32241); details: receptor agonist; background table
# T1 sequence (P32241 31-457): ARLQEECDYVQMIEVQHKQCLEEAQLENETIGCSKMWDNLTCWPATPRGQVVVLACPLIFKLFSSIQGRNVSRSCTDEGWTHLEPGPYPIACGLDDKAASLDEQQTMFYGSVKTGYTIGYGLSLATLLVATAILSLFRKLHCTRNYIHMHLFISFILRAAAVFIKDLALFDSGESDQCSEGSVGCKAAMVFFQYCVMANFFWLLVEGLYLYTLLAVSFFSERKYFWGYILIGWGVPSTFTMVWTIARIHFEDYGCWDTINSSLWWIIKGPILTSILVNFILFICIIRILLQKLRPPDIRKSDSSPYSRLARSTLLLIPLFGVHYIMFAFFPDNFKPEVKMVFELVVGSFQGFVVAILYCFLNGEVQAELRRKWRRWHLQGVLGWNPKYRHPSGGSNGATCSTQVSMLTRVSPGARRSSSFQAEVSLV
# [2] = target: T2, VPAC2 (Homo sapiens, UniProt P41587); details: receptor agonist; background table
# T2 sequence (P41587 24-438): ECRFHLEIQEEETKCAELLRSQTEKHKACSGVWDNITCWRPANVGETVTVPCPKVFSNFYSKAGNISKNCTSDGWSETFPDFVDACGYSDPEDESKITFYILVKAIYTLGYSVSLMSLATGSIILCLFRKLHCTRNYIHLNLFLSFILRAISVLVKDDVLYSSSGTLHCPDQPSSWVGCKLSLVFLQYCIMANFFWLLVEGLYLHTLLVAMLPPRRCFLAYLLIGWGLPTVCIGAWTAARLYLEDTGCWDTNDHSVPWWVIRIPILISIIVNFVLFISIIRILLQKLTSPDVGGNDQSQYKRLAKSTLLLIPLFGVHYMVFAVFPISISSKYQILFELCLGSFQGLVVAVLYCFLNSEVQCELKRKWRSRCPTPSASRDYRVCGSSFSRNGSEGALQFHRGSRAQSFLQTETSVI
substance,measurement,setting,value
Maxadilan,EC50,[1],> 1000 nM
same,EC50,[2],> 1000 nM
